Test results: patent US6365215B1, “Oral sensory perception-affecting compositions containing dimethyl sulfoxide, complexes thereof and salts thereof” (International Flavors & Fragrances Inc., priority 2000, dated 2002)

Key:
[1] = Comparison of perceived cooling: second compound plus dimethyl sulfoxide vs. second compound alone (Table I); format: in vivo; details: scale 0-10
Excerpt: is admixed with such “second compound(s),” the resulting mixture as stated, supra, has a highly intensified oral sensory perception effect, for example, a “highly intensified cooling effect” or a “highly intensified hot, burning effect.” Such effects are highly desirable in the use of certain oral care products such as mouthwashes, toothpastes and the like as set forth, supra. Thus, the following Table I sets forth a comparison of a “control” which is a “second compound” taken alone vs. the mixture of dimethyl sulfoxide with the said “second compound”: […]

[2] = Perceived cooling in screening base: silica toothpaste base with 0.4% saccharin (Table II); format: in vivo
Excerpt: The following Table II sets forth the effect in a screening base, in this case: silica toothpaste base containing 0.4% saccharin of various “second compounds” in admixture with dimethyl sulfoxide, as follows: […]

[3] = second compound 30 ppm + DMSO 0.1 ppm
[4] = second compound 30 ppm + DMSO 100 ppm
[5] = second compound alone 30 ppm (control for DMSO 0.1 ppm line)
[6] = second compound alone 30 ppm (control for DMSO 100 ppm line)
[7] = scaled 1-10, 2nd compound 30 ppm + DMSO 0.1 ppm
[8] = scaled 1-10, 2nd compound 30 ppm + DMSO 1 ppm
[9] = scaled 1-10, 2nd compound alone 30 ppm (line of DMSO 0.1 ppm)
[10] = scaled 1-10, 2nd compound alone 30 ppm (line of DMSO 1 ppm)

Structure (SMILES) | Effect of Mixture vs. Control, perceived cooling: mixture [1, 3] | Effect of Mixture vs. Control, perceived cooling: mixture [1, 4] | Effect of Mixture vs. Control, perceived cooling: control [1, 5] | Effect of Mixture vs. Control, perceived cooling: control [1, 6] | Observed Effect Scaled at 1-10 vs. 2nd Compound Alone, perceived cooling: with DMSO [2, 7] | Observed Effect Scaled at 1-10 vs. 2nd Compound Alone, perceived cooling: with DMSO [2, 8] | Observed Effect Scaled at 1-10 vs. 2nd Compound Alone, perceived cooling: 2nd compound alone [2, 9] | Observed Effect Scaled at 1-10 vs. 2nd Compound Alone, perceived cooling: 2nd compound alone [2, 10] | other results
CC1CCC(C(C)C)C(OC(=O)CCC(=O)O)C1 (centres unmarked) [Monomenthyl succinate, menthyl succinate] | – | – | – | – | – | – | – | – | Effect of Mixture vs. Control, perceived cooling: mixture ([1]; second compound 100 ppm + DMSO 0.1 ppm): 9.1; Effect of Mixture vs. Control, perceived cooling: mixture ([1]; second compound 100 ppm + DMSO 100 ppm): 8.7; Effect of Mixture vs. Control, perceived cooling: control ([1]; second compound alone 100 ppm (control for DMSO 0.1 ppm line)): 3.8; Effect of Mixture vs. Control, perceived cooling: control ([1]; second compound alone 100 ppm (control for DMSO 100 ppm line)): 2.5; Observed Effect Scaled at 1-10 vs. 2nd Compound Alone, perceived cooling: with DMSO ([2]; scaled 1-10, 2nd compound 100 ppm + DMSO 0.1 ppm): 9.0; Observed Effect Scaled at 1-10 vs. 2nd Compound Alone, perceived cooling: with DMSO ([2]; scaled 1-10, 2nd compound 100 ppm + DMSO 1 ppm): 9.2; Observed Effect Scaled at 1-10 vs. 2nd Compound Alone, perceived cooling: 2nd compound alone ([2]; scaled 1-10, 2nd compound alone 100 ppm (line of DMSO 0.1 ppm)): 3.5; Observed Effect Scaled at 1-10 vs. 2nd Compound Alone, perceived cooling: 2nd compound alone ([2]; scaled 1-10, 2nd compound alone 100 ppm (line of DMSO 1 ppm)): 3.7
CC1CCC(C(C)C)C(OC(=O)C(C)O)C1 (centres unmarked) [Menthyl lactate] | 8.4 | 8.2 | 1.7 | 2.1 | – | – | – | – | –
CC1CCC(C(C)C)C(O)C1 (centres unmarked) [Menthol, menthol] | – | – | – | – | – | – | – | – | Effect of Mixture vs. Control, perceived cooling: mixture ([1]; second compound 5 ppm + DMSO 0.1 ppm): 8; Effect of Mixture vs. Control, perceived cooling: mixture ([1]; second compound 10 ppm + DMSO 1 ppm): 9; Effect of Mixture vs. Control, perceived cooling: mixture ([1]; second compound 30 ppm + DMSO 5 ppm): 9.5; Effect of Mixture vs. Control, perceived cooling: mixture ([1]; second compound 100 ppm + DMSO 10 ppm): 8.7; Effect of Mixture vs. Control, perceived cooling: control ([1]; second compound alone 5 ppm (control for DMSO 0.1 ppm line)): 1.5; Effect of Mixture vs. Control, perceived cooling: control ([1]; second compound alone 10 ppm (control for DMSO 1 ppm line)): 1.3; Effect of Mixture vs. Control, perceived cooling: control ([1]; second compound alone 30 ppm (control for DMSO 5 ppm line)): 1.1; Effect of Mixture vs. Control, perceived cooling: control ([1]; second compound alone 100 ppm (control for DMSO 10 ppm line)): 2; Observed Effect Scaled at 1-10 vs. 2nd Compound Alone, perceived cooling: with DMSO ([2]; scaled 1-10, 2nd compound 0.50% + DMSO 1 ppm): 8.2; Observed Effect Scaled at 1-10 vs. 2nd Compound Alone, perceived cooling: 2nd compound alone ([2]; scaled 1-10, 2nd compound alone 0.50% (line of DMSO 1 ppm)): 1.6
CCNC(=O)C1CC(C)CCC1C(C)C (centres unmarked) [WS 3 ®] | 9.3 | 9.0 | 1.5 | 1.6 | 9.1 | 9.0 | 1.7 | 1.6 | –
CCC(C)C(C(=O)NC(C)C)C(C)C (centres unmarked) [WS 23 ®] | 9.6 | 9.2 | 2.4 | 2.2 | 9.8 | 9.9 | 2.4 | 2.6 | –
